{"source": "patent US12343326B2", "about": "“Psychoactive medicines and their use for treating psychiatric and neurological conditions and disorders” (Transcend Therapeutics, Inc., priority 2021, dated 2025)", "assay_in_all_cases": "β-arrestin based GPCR screen (PathHunter / GPCRmax), antagonist mode", "key": {"168 GPCRs [1]": {"target": "168 GPCRs (Homo sapiens, UniProt P41968)", "sequence (P41968 whole entry)": "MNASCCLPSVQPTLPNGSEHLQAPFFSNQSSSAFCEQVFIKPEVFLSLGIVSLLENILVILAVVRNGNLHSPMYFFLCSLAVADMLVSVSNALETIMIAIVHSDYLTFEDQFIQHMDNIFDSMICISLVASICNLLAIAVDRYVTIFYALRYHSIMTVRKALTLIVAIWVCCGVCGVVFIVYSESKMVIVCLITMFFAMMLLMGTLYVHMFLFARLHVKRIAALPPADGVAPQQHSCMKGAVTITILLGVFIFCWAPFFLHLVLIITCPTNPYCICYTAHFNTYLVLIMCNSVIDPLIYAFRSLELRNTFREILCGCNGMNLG", "conditions": "MC3R"}, "168 GPCRs [2]": {"target": "168 GPCRs (Homo sapiens, UniProt P47898)", "sequence (P47898 whole entry)": "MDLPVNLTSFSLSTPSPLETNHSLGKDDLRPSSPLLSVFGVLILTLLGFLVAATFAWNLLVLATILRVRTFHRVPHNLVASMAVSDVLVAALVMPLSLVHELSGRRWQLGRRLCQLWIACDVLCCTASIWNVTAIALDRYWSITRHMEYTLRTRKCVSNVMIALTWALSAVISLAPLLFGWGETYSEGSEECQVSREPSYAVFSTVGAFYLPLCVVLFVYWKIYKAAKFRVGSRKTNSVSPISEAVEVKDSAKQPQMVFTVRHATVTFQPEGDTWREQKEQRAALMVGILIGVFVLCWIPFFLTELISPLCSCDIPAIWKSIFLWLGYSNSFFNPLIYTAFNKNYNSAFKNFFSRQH", "conditions": "HTR5A"}, "168 GPCRs [3]": {"target": "168 GPCRs (Homo sapiens, UniProt Q99705)", "sequence (Q99705 whole entry)": "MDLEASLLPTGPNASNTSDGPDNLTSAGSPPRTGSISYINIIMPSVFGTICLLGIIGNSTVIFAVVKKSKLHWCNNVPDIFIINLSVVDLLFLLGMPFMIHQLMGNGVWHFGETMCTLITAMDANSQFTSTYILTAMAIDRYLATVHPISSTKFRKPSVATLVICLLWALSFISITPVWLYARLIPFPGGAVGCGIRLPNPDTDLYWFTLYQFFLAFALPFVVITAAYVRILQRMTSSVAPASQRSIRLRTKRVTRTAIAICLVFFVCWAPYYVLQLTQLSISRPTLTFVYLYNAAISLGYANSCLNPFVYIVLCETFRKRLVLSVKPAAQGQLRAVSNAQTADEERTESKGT"}, "168 GPCRs [4]": {"target": "168 GPCRs (Homo sapiens, UniProt P41587)"}, "168 GPCRs [5]": {"target": "168 GPCRs (Homo sapiens, UniProt O43603)", "sequence (O43603 whole entry)": "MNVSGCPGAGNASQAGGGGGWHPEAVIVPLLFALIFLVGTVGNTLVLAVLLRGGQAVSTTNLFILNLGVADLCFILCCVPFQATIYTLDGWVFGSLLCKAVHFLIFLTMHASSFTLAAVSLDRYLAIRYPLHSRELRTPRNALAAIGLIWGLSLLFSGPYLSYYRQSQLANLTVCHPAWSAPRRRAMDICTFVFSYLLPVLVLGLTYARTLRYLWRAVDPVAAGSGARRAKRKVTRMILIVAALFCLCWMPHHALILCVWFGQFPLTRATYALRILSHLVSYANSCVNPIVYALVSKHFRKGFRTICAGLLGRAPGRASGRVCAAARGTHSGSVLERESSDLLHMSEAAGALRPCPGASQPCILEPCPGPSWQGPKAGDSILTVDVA"}, "168 GPCRs [6]": {"target": "168 GPCRs (Homo sapiens, UniProt P51677)", "conditions": "CCR3, Antagonist"}, "168 GPCRs [7]": {"target": "168 GPCRs (Homo sapiens, UniProt P51684)", "conditions": "CCR6, Antagonist"}, "168 GPCRs [8]": {"target": "168 GPCRs (Homo sapiens, UniProt P25105)", "conditions": "PTAFR"}, "168 GPCRs [9]": {"target": "168 GPCRs (Homo sapiens, UniProt O43193)", "conditions": "MLNR"}, "168 GPCRs [10]": {"target": "168 GPCRs (Homo sapiens, UniProt Q13324)", "sequence (Q13324 whole entry)": "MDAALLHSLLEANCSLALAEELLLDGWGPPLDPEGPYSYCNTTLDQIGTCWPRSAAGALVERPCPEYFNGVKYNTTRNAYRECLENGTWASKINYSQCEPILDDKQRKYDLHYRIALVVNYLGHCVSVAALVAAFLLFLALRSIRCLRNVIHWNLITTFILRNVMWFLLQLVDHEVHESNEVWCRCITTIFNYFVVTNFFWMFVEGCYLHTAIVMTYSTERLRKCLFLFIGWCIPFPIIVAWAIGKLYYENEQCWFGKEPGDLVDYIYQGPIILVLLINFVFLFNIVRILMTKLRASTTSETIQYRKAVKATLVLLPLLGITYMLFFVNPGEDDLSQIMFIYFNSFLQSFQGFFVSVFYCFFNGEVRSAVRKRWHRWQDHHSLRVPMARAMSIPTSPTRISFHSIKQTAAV"}, "168 GPCRs [11]": {"target": "168 GPCRs (Homo sapiens, UniProt P47901)", "conditions": "AVPR1B, Antagonist"}, "168 GPCRs [12]": {"target": "168 GPCRs (Homo sapiens, UniProt P21918)", "sequence (P21918 whole entry)": "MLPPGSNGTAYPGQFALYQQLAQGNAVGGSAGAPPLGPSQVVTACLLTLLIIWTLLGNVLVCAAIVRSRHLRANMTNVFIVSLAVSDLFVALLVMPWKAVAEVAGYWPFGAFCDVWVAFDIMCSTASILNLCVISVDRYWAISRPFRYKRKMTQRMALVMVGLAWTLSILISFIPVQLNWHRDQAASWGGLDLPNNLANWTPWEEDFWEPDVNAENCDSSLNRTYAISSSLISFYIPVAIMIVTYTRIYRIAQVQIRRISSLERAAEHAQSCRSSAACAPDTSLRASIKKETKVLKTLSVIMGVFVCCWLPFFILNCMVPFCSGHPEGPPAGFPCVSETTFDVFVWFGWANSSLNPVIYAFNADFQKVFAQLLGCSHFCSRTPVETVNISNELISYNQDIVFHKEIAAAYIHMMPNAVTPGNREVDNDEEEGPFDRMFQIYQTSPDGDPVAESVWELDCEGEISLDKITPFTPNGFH"}, "168 GPCRs [13]": {"target": "168 GPCRs (Homo sapiens, UniProt O14842)", "sequence (O14842 whole entry)": "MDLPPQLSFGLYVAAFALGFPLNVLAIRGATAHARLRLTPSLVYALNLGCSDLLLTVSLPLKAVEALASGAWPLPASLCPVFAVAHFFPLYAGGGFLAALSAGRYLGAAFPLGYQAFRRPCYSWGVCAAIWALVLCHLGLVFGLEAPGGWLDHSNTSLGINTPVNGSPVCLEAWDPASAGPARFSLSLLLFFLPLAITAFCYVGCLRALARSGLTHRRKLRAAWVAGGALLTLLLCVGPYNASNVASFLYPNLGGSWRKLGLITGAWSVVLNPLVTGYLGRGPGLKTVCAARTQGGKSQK"}, "168 GPCRs [14]": {"target": "168 GPCRs (Homo sapiens, UniProt Q15722)", "conditions": "LTB4R"}, "168 GPCRs [15]": {"target": "168 GPCRs (Homo sapiens, UniProt Q96LB1)", "sequence (Q96LB1 whole entry)": "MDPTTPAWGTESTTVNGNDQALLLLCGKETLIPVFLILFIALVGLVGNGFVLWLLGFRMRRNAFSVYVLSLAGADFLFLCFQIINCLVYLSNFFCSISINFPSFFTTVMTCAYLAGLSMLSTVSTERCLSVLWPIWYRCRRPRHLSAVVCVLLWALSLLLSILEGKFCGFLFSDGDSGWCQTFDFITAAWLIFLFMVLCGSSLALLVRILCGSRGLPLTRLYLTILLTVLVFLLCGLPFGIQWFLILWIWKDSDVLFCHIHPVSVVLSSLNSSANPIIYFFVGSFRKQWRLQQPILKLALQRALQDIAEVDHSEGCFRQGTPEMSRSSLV"}, "168 GPCRs [16]": {"target": "168 GPCRs (Homo sapiens, UniProt Q92847)", "sequence (Q92847 whole entry)": "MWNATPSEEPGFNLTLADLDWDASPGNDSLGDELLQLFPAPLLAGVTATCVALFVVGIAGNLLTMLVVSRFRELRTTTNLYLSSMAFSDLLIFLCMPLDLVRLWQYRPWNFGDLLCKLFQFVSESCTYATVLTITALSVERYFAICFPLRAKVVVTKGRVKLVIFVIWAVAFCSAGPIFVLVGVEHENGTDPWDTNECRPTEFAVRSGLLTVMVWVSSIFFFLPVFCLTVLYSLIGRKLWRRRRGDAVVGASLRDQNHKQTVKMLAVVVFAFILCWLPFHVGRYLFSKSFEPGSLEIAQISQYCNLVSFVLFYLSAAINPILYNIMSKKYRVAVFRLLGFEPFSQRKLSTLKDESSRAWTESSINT", "conditions": "GHSR"}, "168 GPCRs [17]": {"target": "168 GPCRs (Homo sapiens, UniProt P25090)"}, "168 GPCRs [18]": {"target": "168 GPCRs (Homo sapiens, UniProt P30518)", "conditions": "AVPR2, Antagonist"}, "168 GPCRs [19]": {"target": "168 GPCRs (Homo sapiens, UniProt P25101)", "sequence (P25101 21-427)": "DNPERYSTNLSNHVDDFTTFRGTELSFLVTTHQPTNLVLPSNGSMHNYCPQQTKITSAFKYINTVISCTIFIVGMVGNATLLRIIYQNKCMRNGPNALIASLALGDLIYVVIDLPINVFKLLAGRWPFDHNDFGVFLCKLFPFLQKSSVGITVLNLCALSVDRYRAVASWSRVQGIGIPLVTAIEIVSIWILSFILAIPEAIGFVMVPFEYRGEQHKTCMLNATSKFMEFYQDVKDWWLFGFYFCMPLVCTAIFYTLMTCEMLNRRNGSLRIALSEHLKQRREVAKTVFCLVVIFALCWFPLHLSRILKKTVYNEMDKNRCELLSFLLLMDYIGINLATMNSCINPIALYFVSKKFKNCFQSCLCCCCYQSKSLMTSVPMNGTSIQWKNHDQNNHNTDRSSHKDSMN", "conditions": "EDNRA"}, "168 GPCRs [20]": {"target": "168 GPCRs (Homo sapiens, UniProt P43119)", "sequence (P43119 whole entry)": "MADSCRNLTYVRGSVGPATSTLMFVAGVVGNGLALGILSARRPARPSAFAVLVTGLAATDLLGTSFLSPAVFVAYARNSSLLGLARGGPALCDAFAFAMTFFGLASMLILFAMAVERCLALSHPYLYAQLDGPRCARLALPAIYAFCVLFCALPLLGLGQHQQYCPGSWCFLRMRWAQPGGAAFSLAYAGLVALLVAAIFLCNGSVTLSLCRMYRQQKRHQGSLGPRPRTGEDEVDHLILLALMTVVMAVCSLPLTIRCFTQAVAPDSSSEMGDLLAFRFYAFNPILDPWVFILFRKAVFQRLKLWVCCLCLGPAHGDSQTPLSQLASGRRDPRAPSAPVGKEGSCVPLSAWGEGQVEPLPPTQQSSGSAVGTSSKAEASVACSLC", "conditions": "PTGIR"}, "168 GPCRs [21]": {"target": "168 GPCRs (Homo sapiens, UniProt P47211)", "sequence (P47211 whole entry)": "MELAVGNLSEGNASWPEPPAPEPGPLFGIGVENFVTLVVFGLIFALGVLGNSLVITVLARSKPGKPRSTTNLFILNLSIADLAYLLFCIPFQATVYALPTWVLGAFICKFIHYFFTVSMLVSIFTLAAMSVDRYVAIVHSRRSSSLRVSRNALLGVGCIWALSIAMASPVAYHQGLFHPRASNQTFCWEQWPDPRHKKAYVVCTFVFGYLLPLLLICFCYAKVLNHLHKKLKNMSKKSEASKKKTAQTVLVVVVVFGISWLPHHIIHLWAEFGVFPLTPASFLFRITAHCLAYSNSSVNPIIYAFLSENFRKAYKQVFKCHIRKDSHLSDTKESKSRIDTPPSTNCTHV"}, "168 GPCRs [22]": {"target": "168 GPCRs (Homo sapiens, UniProt Q9Y5N1)", "sequence (Q9Y5N1 whole entry)": "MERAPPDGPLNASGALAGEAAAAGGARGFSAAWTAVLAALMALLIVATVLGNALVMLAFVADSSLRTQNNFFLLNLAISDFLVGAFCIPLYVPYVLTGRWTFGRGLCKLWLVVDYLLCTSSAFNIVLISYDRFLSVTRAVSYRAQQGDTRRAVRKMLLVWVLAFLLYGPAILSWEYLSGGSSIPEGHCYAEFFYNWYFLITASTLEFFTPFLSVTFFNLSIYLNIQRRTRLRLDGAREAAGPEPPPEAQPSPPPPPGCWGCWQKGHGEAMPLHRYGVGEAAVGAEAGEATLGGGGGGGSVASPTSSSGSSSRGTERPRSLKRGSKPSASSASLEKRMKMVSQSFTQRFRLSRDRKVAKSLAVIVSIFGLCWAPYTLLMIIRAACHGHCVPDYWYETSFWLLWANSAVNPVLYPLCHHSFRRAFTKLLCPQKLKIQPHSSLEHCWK"}}}
{"molecule": "CNC(C)C(=O)c1ccc2c(c1)OCO2", "note": "(centres unmarked) [methylone, 3,4-methylenedioxy-N-methylcathinone]", "values": [{"measurement": "activity at 10 µM", "setting": "168 GPCRs [1]; Antagonist mode, 10 uM", "result": 0.3, "unit": "%"}, {"measurement": "activity at 1 µM", "setting": "168 GPCRs [1]; Antagonist, 1 uM", "result": -5.7, "unit": "%"}, {"measurement": "activity at 10 µM", "setting": "168 GPCRs [2]; Antagonist mode, 10 uM", "result": 1.6, "unit": "%"}, {"measurement": "activity at 1 µM", "setting": "168 GPCRs [2]; Antagonist, 1 uM", "result": 9.8, "unit": "%"}, {"measurement": "activity at 10 µM", "setting": "168 GPCRs [3]; MCHR1, Antagonist mode, 10 uM", "result": -18.3, "unit": "%"}, {"measurement": "activity at 1 µM", "setting": "168 GPCRs [3]; MCHR1, Antagonist, 1 uM", "result": -12.2, "unit": "%"}, {"measurement": "activity at 10 µM", "setting": "168 GPCRs [4]; VIPR2, Antagonist mode, 10 uM", "result": -2.6, "unit": "%"}, {"measurement": "activity at 1 µM", "setting": "168 GPCRs [4]; VIPR2, Antagonist, 1 uM", "result": -1.5, "unit": "%"}, {"measurement": "activity at 10 µM", "setting": "168 GPCRs [5]; GALR2, Antagonist mode, 10 uM", "result": 1.5, "unit": "%"}, {"measurement": "activity at 1 µM", "setting": "168 GPCRs [5]; GALR2, Antagonist, 1 uM", "result": 7, "unit": "%"}, {"measurement": "activity at 1 µM", "setting": "168 GPCRs [6]; 1 uM", "result": -11.8, "unit": "%"}, {"measurement": "activity at 10 µM", "setting": "168 GPCRs [6]; 10 uM", "result": -4, "unit": "%"}, {"measurement": "activity at 1 µM", "setting": "168 GPCRs [7]; 1 uM", "result": 9.3, "unit": "%"}, {"measurement": "activity at 10 µM", "setting": "168 GPCRs [7]; 10 uM", "result": -1.6, "unit": "%"}, {"measurement": "activity at 10 µM", "setting": "168 GPCRs [8]; Antagonist mode, 10 uM", "result": -6.7, "unit": "%"}, {"measurement": "activity at 1 µM", "setting": "168 GPCRs [8]; Antagonist, 1 uM", "result": 2, "unit": "%"}, {"measurement": "activity at 10 µM", "setting": "168 GPCRs [9]; Antagonist mode, 10 uM", "result": 12.3, "unit": "%"}, {"measurement": "activity at 1 µM", "setting": "168 GPCRs [9]; Antagonist, 1 uM", "result": 15.6, "unit": "%"}, {"measurement": "activity at 10 µM", "setting": "168 GPCRs [10]; CRHR2, Antagonist mode, 10 uM", "result": -0.3, "unit": "%"}, {"measurement": "activity at 1 µM", "setting": "168 GPCRs [10]; CRHR2, Antagonist, 1 uM", "result": -2, "unit": "%"}, {"measurement": "activity at 1 µM", "setting": "168 GPCRs [11]; 1 uM", "result": 9.8, "unit": "%"}, {"measurement": "activity at 10 µM", "setting": "168 GPCRs [11]; 10 uM", "result": 3.5, "unit": "%"}, {"measurement": "activity at 10 µM", "setting": "168 GPCRs [12]; DRD5, Antagonist mode, 10 uM", "result": -2.6, "unit": "%"}, {"measurement": "activity at 1 µM", "setting": "168 GPCRs [12]; DRD5, Antagonist, 1 uM", "result": -5.9, "unit": "%"}, {"measurement": "activity at 10 µM", "setting": "168 GPCRs [13]; FFAR1, Antagonist mode, 10 uM", "result": -13.8, "unit": "%"}, {"measurement": "activity at 1 µM", "setting": "168 GPCRs [13]; FFAR1, Antagonist, 1 uM", "result": -7.9, "unit": "%"}, {"measurement": "activity at 10 µM", "setting": "168 GPCRs [14]; Antagonist mode, 10 uM", "result": -5.2, "unit": "%"}, {"measurement": "activity at 1 µM", "setting": "168 GPCRs [14]; Antagonist, 1 uM", "result": 3.5, "unit": "%"}, {"measurement": "activity at 10 µM", "setting": "168 GPCRs [15]; MRGPRX2, Antagonist mode, 10 uM", "result": 8.9, "unit": "%"}, {"measurement": "activity at 1 µM", "setting": "168 GPCRs [15]; MRGPRX2, Antagonist, 1 uM", "result": 16.2, "unit": "%"}, {"measurement": "activity at 10 µM", "setting": "168 GPCRs [16]; Antagonist mode, 10 uM", "result": 9.1, "unit": "%"}, {"measurement": "activity at 1 µM", "setting": "168 GPCRs [16]; Antagonist, 1 uM", "result": 25.8, "unit": "%"}, {"measurement": "activity at 10 µM", "setting": "168 GPCRs [17]; FPRL1, Antagonist mode, 10 uM", "result": 3.9, "unit": "%"}, {"measurement": "activity at 1 µM", "setting": "168 GPCRs [17]; FPRL1, Antagonist, 1 uM", "result": 12.3, "unit": "%"}, {"measurement": "activity at 1 µM", "setting": "168 GPCRs [18]; 1 uM", "result": -2.7, "unit": "%"}, {"measurement": "activity at 10 µM", "setting": "168 GPCRs [18]; 10 uM", "result": -14.8, "unit": "%"}, {"measurement": "activity at 10 µM", "setting": "168 GPCRs [19]; Antagonist mode, 10 uM", "result": -11.3, "unit": "%"}, {"measurement": "activity at 1 µM", "setting": "168 GPCRs [19]; Antagonist, 1 uM", "result": -2.4, "unit": "%"}, {"measurement": "activity at 10 µM", "setting": "168 GPCRs [20]; Antagonist mode, 10 uM", "result": -21.5, "unit": "%"}, {"measurement": "activity at 1 µM", "setting": "168 GPCRs [20]; Antagonist, 1 uM", "result": 12.4, "unit": "%"}, {"measurement": "activity at 10 µM", "setting": "168 GPCRs [21]; GALR1, Antagonist mode, 10 uM", "result": 6.8, "unit": "%"}, {"measurement": "activity at 1 µM", "setting": "168 GPCRs [21]; GALR1, Antagonist, 1 uM", "result": 7.1, "unit": "%"}, {"measurement": "activity at 10 µM", "setting": "168 GPCRs [22]; HRH3, Antagonist mode, 10 uM", "result": 5.8, "unit": "%"}, {"measurement": "activity at 1 µM", "setting": "168 GPCRs [22]; HRH3, Antagonist, 1 uM", "result": 9.5, "unit": "%"}]}
